Calls of active or inactive are those of the source.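 The calls were made as follows: active = maximal inhibition of the USP30 enzyme reaching 30% or more across the dose series; inactive = the rest.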

The term IC50 denotes the concentration needed to halve the response being measured.

Sequence of Ubiquitin carboxyl-terminal hydrolase 30 (Homo sapiens) (Q70CQ3 whole entry, looked up): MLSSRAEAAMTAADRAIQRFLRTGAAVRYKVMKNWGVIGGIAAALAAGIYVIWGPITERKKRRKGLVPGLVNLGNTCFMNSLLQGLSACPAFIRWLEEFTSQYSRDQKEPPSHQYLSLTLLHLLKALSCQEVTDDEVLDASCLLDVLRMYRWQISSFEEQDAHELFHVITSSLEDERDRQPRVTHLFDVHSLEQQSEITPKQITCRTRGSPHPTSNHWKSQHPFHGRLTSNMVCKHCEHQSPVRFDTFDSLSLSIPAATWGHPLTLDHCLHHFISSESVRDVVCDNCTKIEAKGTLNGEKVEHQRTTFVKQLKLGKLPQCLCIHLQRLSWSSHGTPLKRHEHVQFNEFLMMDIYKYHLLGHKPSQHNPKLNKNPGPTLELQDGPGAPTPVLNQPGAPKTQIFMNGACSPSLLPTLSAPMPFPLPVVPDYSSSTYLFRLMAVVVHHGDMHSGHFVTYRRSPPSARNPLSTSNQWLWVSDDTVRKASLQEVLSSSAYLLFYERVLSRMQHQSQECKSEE

This experiment concerns the target Ubiquitin carboxyl-terminal hydrolase 30 (Homo sapiens) (UniProt Q70CQ3). In words: inhibitors of ubiquitin-specific protease 30 deubiquitylating enzyme, concentration dependence, in vitro biochemical, validation of primary hits (AID 1645865). The settings on record: purified USP30, Ub-rhodamine cleavage, fluorescence, 2 h.
In the case of `COc1ccccc1CNC(=O)c1c(O)c2cnn(-c3cccc(C)c3)c2[nH]c1=O`, the IC50 is > 50 µM (inactive).

For the compound `O=C(c1ccco1)N1CCN=C1SCc1ccccc1F`, the IC50 is > 50 µM (inactive).

In the case of `Cc1nn(C)c2c1[C@@H](c1ccc(F)cc1)[C@H](NC(=O)c1ccccc1)C(=O)N2`, the IC50 is > 50 µM (inactive).

For `O=C(CCCn1c(=O)[nH]c2cc(Cl)ccc2c1=O)N1CCc2ccccc2C1`, the IC50 was 35.4 µM.

As to `Cn1c(=O)cc(SCC(=O)NC2CCN(Cc3ccccc3)CC2)c2ccc(Cl)cc21`, the IC50 is 28.8 µM.

Take `c1ccc(-n2nnc(-c3noc(-c4cccnc4)n3)c2-c2ccncc2)cc1`: the IC50 is 25.9 µM.

Take `CC(C)NS(=O)(=O)c1ccc(CCC(=O)Nc2ccc3c(c2)OCCO3)cc1`: the IC50 is 37.8 µM.

`CC1CCCCN1CCCNC(=O)c1ccc(N2CCc3ccccc32)s1` (stereo unspecified): the IC50 was 30.9 µM.

With `Cn1c(=O)[nH]c(=O)c2c1nc1n(CCc3ccccc3)c(-c3ccccc3)cn21`, the IC50 is 37.5 µM.

Regarding `O=C1C=CC(O)C2C1CC13SSC4(CC5C(=O)C=CC(O)C5N4C1=O)C(=O)N23` (stereo unspecified), the IC50 is 1 µM.

With `Cc1ccc(CSC2=NS(=O)(=O)c3ccccc3N2)cc1`, the IC50 is > 50 µM (inactive).

Consider `COc1cc2c(cc1OC)C(COc1ccccc1OC)N(C(=O)c1ccc3ccccc3c1)CC2` (stereo unspecified), for which the IC50 was > 50 µM (inactive).

Consider `COc1ccc(NS(=O)(=O)c2cc(NC(=O)CCc3nc4ccccc4s3)ccc2C)cc1`, for which the IC50 was 26.2 µM.

In the case of `CCC(C)(C)C1CCC2(CC1)N=C(N)Nc1nc3ccccc3n12` (stereo unspecified), the IC50 was 28.6 µM.

For the compound `O=C(NC1CCN(Cc2ccccc2)CC1)c1[nH]nc2c1CCc1ccccc1-2`, the IC50 was > 50 µM (inactive).

As to `Cc1nc(C(=O)N[C@@H](C)C(=O)NCc2ccc3c(c2)OCO3)cc2c1[nH]c1ccccc12`, the IC50 is > 50 µM (inactive).

With `CCOc1ccc2[nH]c3c(=O)n(CCc4ccc(OC)cc4)cnc3c2c1`, the IC50 was 2.05 µM.

Take `Cc1ccc(S(=O)(=O)N(C)C)cc1NC(=O)Cc1ccc(Cl)c(Cl)c1`: the IC50 is > 50 µM (inactive).

Take `O=C(O)Cc1ccc(Nc2nc3ccccc3n3nnnc23)cc1`: the IC50 was > 50 µM (inactive).

As to `Cc1ccc2c(c1)c(=O)c(C(=O)c1ccccc1)cn2CC(=O)Nc1ccccc1`, the IC50 is 8.81 µM.

As for `c1ccc(-c2nc(-c3nnn(-c4ccccc4)c3-c3ccncc3)no2)cc1`, the IC50 is 2.29 µM.

As for `O=C(/C=C/c1c(F)cccc1Cl)N1CCc2ccccc2C1`, the IC50 was > 50 µM (inactive).

As to `O=C(CN1C(=O)NC2(CCCCC2)C1=O)Nc1ccc([N+](=O)[O-])cc1`, the concentration for half-maximal inhibition (IC50) was 33.5 µM.

Take `Cc1ccc(NC(=O)/C=C/c2cccc(C(F)(F)F)c2)c(O)c1`: the 50% inhibitory concentration (IC50) is 5.24 µM.

On to `Cc1sc(NC(=O)/C=C/c2ccco2)nc1-c1ccccc1`, for which the IC50 was > 50 µM (inactive).

On to `Nc1ccccc1SCc1noc(-c2cccs2)n1`, for which the IC50 is > 50 µM (inactive).

As to `Cn1cc(CCNC(=O)c2cc3ccccc3[nH]2)c2cccnc21`, the IC50 is > 50 µM (inactive).

Take `Cc1c(-c2ccc(C#N)cc2)oc2ccc(Br)cc2c1=O`: the IC50 is 2.57 µM.

As to `COc1ccc(-c2nonc2NC(=O)C(c2ccccc2)c2ccccc2)cc1OC`, the IC50 was > 50 µM (inactive).

For the compound `COc1ccc(CCNC(=O)c2cc(C3CC3)nc3c2cnn3C(C)C)cc1`, the IC50 was > 50 µM (inactive).

In the case of `O=c1[nH]c(C2CCN(S(=O)(=O)c3ccc(S(=O)(=O)NC4CCCCC4)cc3)CC2)nc2c1nnn2Cc1c(Cl)cccc1Cl`, the IC50 is 12.1 µM.

For the compound `O=C(c1ccsc1)N1CCC2(C1)Nc1cccnc1NC2=NC1CCCC1` (stereo unspecified), the IC50 is > 50 µM (inactive).

As to `CC(C)CCn1c(=O)c2ccccc2n2c(CCC(=O)NC3CCCCCC3)nnc12`, the IC50 is > 50 µM (inactive).

Turning to `O=C(NCc1ccccc1Cl)C1CCCN(c2nc3ccsc3c(=O)s2)C1` (stereo unspecified), the IC50 is 0.965 µM.

Regarding `CCc1ccccc1NC(=O)c1cc(-c2ccccn2)n[nH]1`, the IC50 is 24 µM.

Turning to `O=C(Cn1cnc2c(cnn2-c2ccc(Cl)cc2)c1=O)NCc1ccccc1Cl`, the IC50 is 2.33 µM.

In the case of `COc1ccc(-c2nnc(SCc3ccccc3C#N)o2)c(OC)c1`, the IC50 is 49.7 µM.

As for `COc1cccc(-n2nnc(C(=O)Nc3ccc(C)c(C)c3)c2C)c1`, the IC50 is > 50 µM (inactive).

For the compound `CC(C(=O)NCc1ccc(F)cc1)n1cccc1C(=O)c1ccccc1` (stereo unspecified), the IC50 was > 50 µM (inactive).

On to `Cc1ccc(NC(=O)c2ccn(COc3ccc(F)cc3)n2)nc1`, for which the IC50 was 24.8 µM.

As for `Cc1ccc(-c2nnc(-n3ncc(C#N)c3N)c3ccccc23)cc1C`, the IC50 is > 50 µM (inactive).

Regarding `COc1ccc(NC(=O)C2CC(=O)Nc3c(-c4ccc(Cl)cc4)cnn32)c(OC)c1` (stereo unspecified), the IC50 is 8.18 µM.

Regarding `O=C(Cn1c(=O)n(Cc2ccc(F)cc2)c(=O)c2sccc21)Nc1cccc(Cl)c1`, the IC50 is 4.47 µM.

`N#Cc1ccccc1OCc1csc(-c2ccccc2)n1`: the IC50 was > 50 µM (inactive).

Regarding `Cc1ccc(Cl)cc1NC(=O)COC(=O)c1ccc2ccccc2n1`, the IC50 is > 50 µM (inactive).

For `O=C(Nc1cccc(Br)c1)c1cc(-c2cccnc2)n[nH]1`, the IC50 is 1.55 µM.

Consider `Cc1cc(C(F)(F)F)n(-c2ccc(NC(=O)Nc3cccc(C(F)(F)F)c3)cc2)n1`, for which the IC50 is 8.68 µM.

On to `CCCOc1ccc(C(=O)Nc2ccc(S(=O)(=O)Nc3cc(C)nc(C)n3)cc2)cc1`, for which the IC50 is > 50 µM (inactive).

In the case of `O=C(NCc1ccc2c(c1)OCO2)c1nnc(Cc2ccc(F)cc2)o1`, the IC50 is 44.2 µM.

Consider `Cc1ccc2c(c1)c(=O)c(C(=O)c1ccc(F)cc1)cn2CC(=O)Nc1ccc2c(c1)OCCO2`, for which the IC50 was > 5 µM (inactive).

As for `COc1ccc(NC(=O)c2nnn(-c3ccccc3)c2C)cc1OC`, the IC50 was > 50 µM (inactive).

As for `O=C1C[C@@H]2O[C@H](CNC(=O)[C@@H]3CN(CCN3C(=O)C3CCOCC3)C(=O)[C@@H]3C[C@@H](CN3Cc3ccc(F)c(F)c3)N1)[C@@H](O)[C@H]2O`, the IC50 was > 50 µM (inactive).

In the case of `O=C(Nc1ccc(NS(=O)(=O)c2ccc3c4c(cccc24)CC3)cc1)c1ccccc1`, the IC50 was > 50 µM (inactive).

For `O=C(Cn1cc(C(=O)C(F)(F)F)c2ccccc21)N1CCc2ccccc21`, the IC50 was 2.4 µM.

On to `CC(C)(C)C(=O)C1C2C(=O)N(Cc3ccccc3)C(=O)C2C2c3ccccc3C=CN12` (stereo unspecified), for which the IC50 was > 50 µM (inactive).

Regarding `CN(C)c1ccc(C2CC(c3c(O)n(C)c(=O)[nH]c3=O)=Nc3ccccc3S2)cc1` (stereo unspecified), the IC50 is 1.92 µM.

Consider `O=C(NCc1ccc(F)cc1)c1cc(-n2cnnn2)ccc1Cl`, for which the IC50 was 21.3 µM.

In the case of `Cc1cc(C)c2cc(C(=O)NC3CCN(Cc4ccccc4)CC3)[nH]c2c1`, the IC50 was 8.5 µM.

Turning to `CNC(=O)c1cc2c(=O)n3cccc(C)c3nc2n1Cc1ccccc1`, the IC50 was 2.29 µM.

As to `COc1cccc2c1NC(=O)C21CCN(C(=O)Nc2cccc3ccccc23)CC1`, the IC50 was > 50 µM (inactive).

With `COc1ccc(CC(=O)Nc2nc(-c3ccco3)c(-c3ccco3)s2)cc1`, the IC50 was > 50 µM (inactive).

On to `Cc1ccc(C)c(Nc2cc(C)nc3nc(-c4ccco4)nn23)c1`, for which the IC50 is > 50 µM (inactive).

Regarding `CC1CCN(c2cc(-n3cnc(C(=O)N4CCCCC4)c3)ncn2)CC1`, the IC50 was > 50 µM (inactive).

For the compound `O=C1CC(c2cc3c(cc2Br)OCO3)c2cc3c(cc2N1)OCCO3` (stereo unspecified), the IC50 was 19.2 µM.

On to `O=C(Nc1cccc(Cl)c1)N1CCC(c2cc(-c3ccco3)n[nH]2)CC1`, for which the IC50 was > 50 µM (inactive).

For the compound `COc1cccc(NC(=O)C2C3C=CC4(O3)C2C(=O)N(CCc2ccccc2Cl)C4C(=O)NC2CCCCC2)c1` (stereo unspecified), the IC50 is 41.2 µM.

In the case of `O=C(CSc1nnc2n1CCCCC2)Nc1ccc2[nH]c(=O)[nH]c2c1`, the IC50 was > 50 µM (inactive).

On to `Cn1c2ccccc2c(=O)c2c(=O)n(Cc3ccccc3)c(-c3ccccc3F)nc21`, for which the IC50 was 0.111 µM.

As to `N#C/C(=C\c1ccc(OCc2cccc(C(=O)O)c2)cc1)c1ccc(F)cc1`, the IC50 was > 50 µM (inactive).

As to `O=C1c2ccccc2-n2c1nc1ccccc1c2=O`, the IC50 is > 50 µM (inactive).

In the case of `CCC(C(=O)NCc1ccncc1)N(c1cccc(Cl)c1)S(C)(=O)=O` (stereo unspecified), the IC50 was > 50 µM (inactive).

On to `Cc1ccc(C(=O)Nc2nc3n(n2)C(c2ccccc2)CC(=O)N3)cc1` (stereo unspecified), for which the IC50 was 24.4 µM.

Regarding `COc1ccc(CNC(=O)CCc2nnc3n(Cc4ccccc4Cl)c(=O)c4ccccc4n23)cc1`, the IC50 is 2.65 µM.

With `CC(C)(C)c1ccc(C(=O)Nc2ccc(Cn3cncn3)cc2)cc1`, the IC50 is > 50 µM (inactive).

Turning to `O=C1c2c(O)c(Cl)cc3c2[C@@]2(Oc4cc(Cl)c(O)c5c4[C@]3(O2)[C@@H]2O[C@@H]2C5=O)[C@@H]2O[C@H]12`, the IC50 is 1.1 µM.

For `CCn1cc(-c2cc(C(=O)Nc3cnn(Cc4cccc(F)c4)c3)c3ccccc3n2)cn1`, the half-maximal inhibitory concentration (IC50) is 49.2 µM.

With `COc1ccc(-c2cc3c(=O)n(CC(=O)Nc4ccccc4F)ccn3n2)cc1OC`, the IC50 is 11.8 µM.

On to `Nc1c(C(=O)c2cccs2)oc2nc(-c3ccccc3)cc(-c3ccco3)c12`, for which the IC50 is > 50 µM (inactive).

Consider `COc1cc(Cn2cnc3c([nH]c4ccc(Br)cc43)c2=O)cc(OC)c1`, for which the concentration for half-maximal inhibition (IC50) is 2.67 µM.

Regarding `COCCNC(=O)c1cc(-c2cn(-c3ccccn3)c(C)n2)n2ccccc12`, the IC50 was > 50 µM (inactive).

Consider `Cc1cc(NC(=O)COc2ccc3oc4ccccc4c3c2)no1`, for which the IC50 was > 50 µM (inactive).

As to `O=C(Nc1ccc2c(c1)OCCO2)c1cc(CN2CCCC2)on1`, the IC50 is > 50 µM (inactive).

`COc1ccc(-c2nc(Cn3nnc(C(=O)Nc4ccc(C)c(C)c4)c3N)c(C)o2)cc1`: the IC50 was 2.53 µM.

Consider `O=[N+]([O-])c1cccc(-c2noc(CSc3ccccc3)n2)c1`, for which the IC50 is 46.6 µM.

Regarding `CC1=C[C@H]2N(c3ccc(C)cc31)[C@H](C(=O)c1cccs1)[C@@H](C(=O)c1ccc(F)cc1)[C@]21C(=O)Nc2ccccc21`, the IC50 is > 50 µM (inactive).

Take `Cc1ccc(NC(=O)Cc2nnc3c(-c4nc(C5CC5)no4)cccn23)cc1`: the half-inhibitory concentration (IC50) is 3.15 µM.

These data come from PubChem BioAssay AID1645865 (Buhrlage Lab, Dana-Farber Cancer Institute and Novartis …, 2021).
